Reference: ChEMBL document CHEMBL1201862, “PubChem BioAssay data set” (2004)
Calls of active or inactive are those of the source.

What was measured:
Protein skinhead-1 = target: T1, Protein skinhead-1 (Caenorhabditis elegans, UniProt P34707); type: functional
T1 sequence (P34707 whole entry): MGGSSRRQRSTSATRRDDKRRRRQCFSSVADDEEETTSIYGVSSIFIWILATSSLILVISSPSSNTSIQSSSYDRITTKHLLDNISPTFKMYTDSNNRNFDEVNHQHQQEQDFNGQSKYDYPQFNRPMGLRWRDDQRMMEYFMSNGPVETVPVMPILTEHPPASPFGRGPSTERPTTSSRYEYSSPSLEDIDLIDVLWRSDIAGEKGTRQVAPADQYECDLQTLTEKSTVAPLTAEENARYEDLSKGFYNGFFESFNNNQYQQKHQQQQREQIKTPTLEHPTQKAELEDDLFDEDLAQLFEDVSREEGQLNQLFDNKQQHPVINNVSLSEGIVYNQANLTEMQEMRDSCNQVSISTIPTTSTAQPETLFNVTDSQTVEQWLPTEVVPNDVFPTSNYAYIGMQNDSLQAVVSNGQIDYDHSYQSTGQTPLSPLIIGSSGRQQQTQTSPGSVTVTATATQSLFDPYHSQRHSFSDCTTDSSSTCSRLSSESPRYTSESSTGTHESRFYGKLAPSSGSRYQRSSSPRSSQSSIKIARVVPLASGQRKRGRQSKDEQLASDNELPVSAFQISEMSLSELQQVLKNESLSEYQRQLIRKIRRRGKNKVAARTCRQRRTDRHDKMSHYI

cells = type: functional
[1] = target: T2, Polyadenylate-binding protein 1 (Homo sapiens, UniProt P11940); assay: PABP1 MLLE–PAM2 interaction inhibitors, dose response, miRNA deadenylation inhibitor project, biochemical, fluorescence polarization, Cy5-PAM2 peptide, secondary (AID 602260); type: functional; conditions: read-out: IC50_Mean
[2] = target: T2, Polyadenylate-binding protein 1; assay: PABP1 MLLE–PAM2 binding inhibitor potency, dose response, biochemical, fluorescence polarization, FITC-PAM2 peptide (AID 602259); type: functional; conditions: read-out: IC50_Mean
H9c2 = assay: cells; type: functional, cell-based; conditions: Rattus norvegicus, H9c2, Myocardium
[3] = target: T3, Corticotropin-releasing factor receptor 2/Corticotropin-releasing factor-binding protein (Homo sapiens, UniProt P24387+Q13324); assay: activators of CRF receptor 2 with binding protein – uHTS hits, confirmation (AID 602473); type: functional; conditions: read-out: EC50_Mean
T3 sequence (Q13324 whole entry): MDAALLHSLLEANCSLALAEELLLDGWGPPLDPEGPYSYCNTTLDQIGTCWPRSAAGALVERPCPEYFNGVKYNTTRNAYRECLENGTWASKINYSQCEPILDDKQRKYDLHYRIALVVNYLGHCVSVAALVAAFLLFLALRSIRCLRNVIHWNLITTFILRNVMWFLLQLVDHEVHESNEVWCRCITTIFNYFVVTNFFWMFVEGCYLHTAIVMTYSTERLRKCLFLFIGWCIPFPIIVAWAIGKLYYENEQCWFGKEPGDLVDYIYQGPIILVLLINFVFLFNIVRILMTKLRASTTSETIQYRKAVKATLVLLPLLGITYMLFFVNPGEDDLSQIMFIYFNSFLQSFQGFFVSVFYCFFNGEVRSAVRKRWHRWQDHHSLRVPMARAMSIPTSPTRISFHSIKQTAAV
T3 sequence (P24387 whole entry): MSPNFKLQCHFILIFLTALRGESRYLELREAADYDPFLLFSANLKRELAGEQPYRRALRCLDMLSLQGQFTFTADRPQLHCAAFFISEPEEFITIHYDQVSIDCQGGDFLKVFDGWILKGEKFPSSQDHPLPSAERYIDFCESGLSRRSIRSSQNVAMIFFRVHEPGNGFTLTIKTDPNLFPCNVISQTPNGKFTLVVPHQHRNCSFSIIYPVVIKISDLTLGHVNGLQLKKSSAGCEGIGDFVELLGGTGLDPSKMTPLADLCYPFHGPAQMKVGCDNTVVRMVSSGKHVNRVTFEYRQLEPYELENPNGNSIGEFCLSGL

[4] = target: T3, Corticotropin-releasing factor receptor 2/Corticotropin-releasing factor-binding protein; assay: Dose Response confirmation of uHTS hits for small molecule antagonists of the CRF-binding protein and CRF-R2 receptor complex.; type: functional; conditions: read-out: IC50_Mean
Leucine aminopeptidase = target: T4, Leucine aminopeptidase (Plasmodium falciparum 3D7, UniProt Q8IL11); assay: P. falciparum M17LAP inhibitors, primary screen, biochemical, fluorogenic H-Leu-NHMec substrate, 1536-well (AID 1619); type: functional
T4 sequence (Q8IL11 whole entry): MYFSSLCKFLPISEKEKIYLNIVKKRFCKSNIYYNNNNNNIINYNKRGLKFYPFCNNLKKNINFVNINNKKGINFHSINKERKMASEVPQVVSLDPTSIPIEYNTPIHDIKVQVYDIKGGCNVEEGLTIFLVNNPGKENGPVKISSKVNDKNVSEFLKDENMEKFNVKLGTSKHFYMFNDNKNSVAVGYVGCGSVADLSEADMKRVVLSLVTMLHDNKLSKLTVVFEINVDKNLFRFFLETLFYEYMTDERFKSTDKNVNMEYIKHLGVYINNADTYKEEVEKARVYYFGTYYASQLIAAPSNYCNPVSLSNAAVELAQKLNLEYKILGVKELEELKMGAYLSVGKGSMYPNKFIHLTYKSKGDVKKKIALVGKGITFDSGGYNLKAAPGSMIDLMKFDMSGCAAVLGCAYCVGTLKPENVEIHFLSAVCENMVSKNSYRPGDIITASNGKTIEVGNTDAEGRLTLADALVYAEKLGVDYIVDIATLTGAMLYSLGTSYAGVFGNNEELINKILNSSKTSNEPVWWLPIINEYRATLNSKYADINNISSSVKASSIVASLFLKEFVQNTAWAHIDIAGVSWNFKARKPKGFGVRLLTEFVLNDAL

[5] = target: FAD-linked sulfhydryl oxidase ALR (Homo sapiens, UniProt P55789); assay: inhibitors of human ALR sulfhydryl oxidase, dose response, biochemical, H2O2 detection, luminescence, cherry-pick (AID 493248)
[6] = Luminescence Cell-Based Dose Confirmation HTS to Identify Activators of 5'UTR Stem-Loop Driven Alpha-Synuclein mRNA Translation in H4 Neuroglioblastoma Cells. [Related pubchem assays: 1829 (Project Summary), 1814 (Primary HTS)]; type: functional
H4 = assay: Luminescence Cell-Based Dose Response HTS to Identify Activators of 5'UTR Stem-Loop Driven Prion Protein mRNA Translation in H4 Neuroglioblastoma Cells. [Related pubchem assays: 1829 (Project Summary), 1814 (Primary HTS)]; type: functional; conditions: Homo sapiens
Estrogen receptor = target: T5, Estrogen receptor (Homo sapiens, UniProt P03372);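 note: potency for inhibiting coactivator peptide recruitment to the receptor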
T5 sequence (P03372 whole entry): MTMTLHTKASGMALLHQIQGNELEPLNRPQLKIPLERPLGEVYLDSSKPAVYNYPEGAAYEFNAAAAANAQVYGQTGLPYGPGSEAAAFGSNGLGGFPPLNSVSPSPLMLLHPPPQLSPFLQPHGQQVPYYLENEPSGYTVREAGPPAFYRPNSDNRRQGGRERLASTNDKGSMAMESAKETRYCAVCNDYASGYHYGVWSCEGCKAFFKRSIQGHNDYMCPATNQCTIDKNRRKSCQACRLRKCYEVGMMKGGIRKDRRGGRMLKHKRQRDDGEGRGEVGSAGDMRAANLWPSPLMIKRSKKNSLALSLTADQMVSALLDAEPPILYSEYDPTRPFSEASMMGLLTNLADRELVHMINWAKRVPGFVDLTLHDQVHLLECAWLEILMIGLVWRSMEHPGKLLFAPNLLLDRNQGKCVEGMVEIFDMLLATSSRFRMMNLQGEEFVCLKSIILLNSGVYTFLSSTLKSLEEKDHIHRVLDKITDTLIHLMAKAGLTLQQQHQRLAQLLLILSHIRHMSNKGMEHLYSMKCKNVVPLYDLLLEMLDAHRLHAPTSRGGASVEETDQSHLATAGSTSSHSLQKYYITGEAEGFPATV

[7] = Luminescence Cell-Based Dose Response HTS to Identify Activators of Luciferase Translation or Activity in H4 […] Cells. [Related pubchem assays: 1829 (Project Summary), 1814 (Primary HTS)]; type: functional
Cytochrome P450 2D6 = Cytochrome P450 2D6 (Homo sapiens, UniProt P10635);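 note: CYP2D6 member of a cytochrome P450 panel assay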
Vero = assay: cells; type: functional; conditions: Chlorocebus sabaeus
Fatty acid synthase [8] = target: T6, Fatty acid synthase (Homo sapiens, UniProt P49327); assay: FAS thioesterase domain inhibitors, dose response, biochemical, kinetic fluorescence intensity (AID 624326); type: functional;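 note: rate of fluorescence rise from hydrolysis of a fluorogenic O-methyl fluorescein ester substrate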
Fatty acid synthase [9] = target: T6, Fatty acid synthase; assay: FAS thioesterase domain inhibitors, dose response, biochemical, endpoint fluorescence intensity, uHTS hits (AID 624327); type: functional;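 note: fluorescence from hydrolysis of an O-methyl fluorescein acyl ester substrate by the enzyme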
[10] = intracellular Trypanosoma cruzi inhibitors in host cells – cell-based, plate reader, cherry-pick samples, set 3, dose response (AID 651818); type: functional;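 note: compounds incubated with infected cells for about four days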

T2 sequence (P11940 whole entry): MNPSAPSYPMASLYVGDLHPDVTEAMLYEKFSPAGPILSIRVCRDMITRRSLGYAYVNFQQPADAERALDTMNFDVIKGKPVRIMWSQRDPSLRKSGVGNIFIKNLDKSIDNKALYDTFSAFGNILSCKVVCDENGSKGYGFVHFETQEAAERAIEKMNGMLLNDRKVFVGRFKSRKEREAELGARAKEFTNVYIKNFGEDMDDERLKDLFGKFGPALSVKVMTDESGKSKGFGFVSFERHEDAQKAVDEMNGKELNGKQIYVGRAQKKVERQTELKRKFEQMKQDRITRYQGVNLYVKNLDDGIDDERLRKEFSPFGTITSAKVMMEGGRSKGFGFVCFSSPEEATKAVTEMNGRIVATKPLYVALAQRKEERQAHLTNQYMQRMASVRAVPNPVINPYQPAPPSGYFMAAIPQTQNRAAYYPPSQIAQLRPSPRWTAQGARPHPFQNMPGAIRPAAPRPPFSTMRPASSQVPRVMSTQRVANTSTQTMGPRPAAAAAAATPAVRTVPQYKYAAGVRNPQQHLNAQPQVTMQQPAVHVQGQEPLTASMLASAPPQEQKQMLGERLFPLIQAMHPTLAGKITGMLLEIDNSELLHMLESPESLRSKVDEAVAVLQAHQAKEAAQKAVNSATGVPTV
T6 sequence (P49327 whole entry, the tested form may be a part): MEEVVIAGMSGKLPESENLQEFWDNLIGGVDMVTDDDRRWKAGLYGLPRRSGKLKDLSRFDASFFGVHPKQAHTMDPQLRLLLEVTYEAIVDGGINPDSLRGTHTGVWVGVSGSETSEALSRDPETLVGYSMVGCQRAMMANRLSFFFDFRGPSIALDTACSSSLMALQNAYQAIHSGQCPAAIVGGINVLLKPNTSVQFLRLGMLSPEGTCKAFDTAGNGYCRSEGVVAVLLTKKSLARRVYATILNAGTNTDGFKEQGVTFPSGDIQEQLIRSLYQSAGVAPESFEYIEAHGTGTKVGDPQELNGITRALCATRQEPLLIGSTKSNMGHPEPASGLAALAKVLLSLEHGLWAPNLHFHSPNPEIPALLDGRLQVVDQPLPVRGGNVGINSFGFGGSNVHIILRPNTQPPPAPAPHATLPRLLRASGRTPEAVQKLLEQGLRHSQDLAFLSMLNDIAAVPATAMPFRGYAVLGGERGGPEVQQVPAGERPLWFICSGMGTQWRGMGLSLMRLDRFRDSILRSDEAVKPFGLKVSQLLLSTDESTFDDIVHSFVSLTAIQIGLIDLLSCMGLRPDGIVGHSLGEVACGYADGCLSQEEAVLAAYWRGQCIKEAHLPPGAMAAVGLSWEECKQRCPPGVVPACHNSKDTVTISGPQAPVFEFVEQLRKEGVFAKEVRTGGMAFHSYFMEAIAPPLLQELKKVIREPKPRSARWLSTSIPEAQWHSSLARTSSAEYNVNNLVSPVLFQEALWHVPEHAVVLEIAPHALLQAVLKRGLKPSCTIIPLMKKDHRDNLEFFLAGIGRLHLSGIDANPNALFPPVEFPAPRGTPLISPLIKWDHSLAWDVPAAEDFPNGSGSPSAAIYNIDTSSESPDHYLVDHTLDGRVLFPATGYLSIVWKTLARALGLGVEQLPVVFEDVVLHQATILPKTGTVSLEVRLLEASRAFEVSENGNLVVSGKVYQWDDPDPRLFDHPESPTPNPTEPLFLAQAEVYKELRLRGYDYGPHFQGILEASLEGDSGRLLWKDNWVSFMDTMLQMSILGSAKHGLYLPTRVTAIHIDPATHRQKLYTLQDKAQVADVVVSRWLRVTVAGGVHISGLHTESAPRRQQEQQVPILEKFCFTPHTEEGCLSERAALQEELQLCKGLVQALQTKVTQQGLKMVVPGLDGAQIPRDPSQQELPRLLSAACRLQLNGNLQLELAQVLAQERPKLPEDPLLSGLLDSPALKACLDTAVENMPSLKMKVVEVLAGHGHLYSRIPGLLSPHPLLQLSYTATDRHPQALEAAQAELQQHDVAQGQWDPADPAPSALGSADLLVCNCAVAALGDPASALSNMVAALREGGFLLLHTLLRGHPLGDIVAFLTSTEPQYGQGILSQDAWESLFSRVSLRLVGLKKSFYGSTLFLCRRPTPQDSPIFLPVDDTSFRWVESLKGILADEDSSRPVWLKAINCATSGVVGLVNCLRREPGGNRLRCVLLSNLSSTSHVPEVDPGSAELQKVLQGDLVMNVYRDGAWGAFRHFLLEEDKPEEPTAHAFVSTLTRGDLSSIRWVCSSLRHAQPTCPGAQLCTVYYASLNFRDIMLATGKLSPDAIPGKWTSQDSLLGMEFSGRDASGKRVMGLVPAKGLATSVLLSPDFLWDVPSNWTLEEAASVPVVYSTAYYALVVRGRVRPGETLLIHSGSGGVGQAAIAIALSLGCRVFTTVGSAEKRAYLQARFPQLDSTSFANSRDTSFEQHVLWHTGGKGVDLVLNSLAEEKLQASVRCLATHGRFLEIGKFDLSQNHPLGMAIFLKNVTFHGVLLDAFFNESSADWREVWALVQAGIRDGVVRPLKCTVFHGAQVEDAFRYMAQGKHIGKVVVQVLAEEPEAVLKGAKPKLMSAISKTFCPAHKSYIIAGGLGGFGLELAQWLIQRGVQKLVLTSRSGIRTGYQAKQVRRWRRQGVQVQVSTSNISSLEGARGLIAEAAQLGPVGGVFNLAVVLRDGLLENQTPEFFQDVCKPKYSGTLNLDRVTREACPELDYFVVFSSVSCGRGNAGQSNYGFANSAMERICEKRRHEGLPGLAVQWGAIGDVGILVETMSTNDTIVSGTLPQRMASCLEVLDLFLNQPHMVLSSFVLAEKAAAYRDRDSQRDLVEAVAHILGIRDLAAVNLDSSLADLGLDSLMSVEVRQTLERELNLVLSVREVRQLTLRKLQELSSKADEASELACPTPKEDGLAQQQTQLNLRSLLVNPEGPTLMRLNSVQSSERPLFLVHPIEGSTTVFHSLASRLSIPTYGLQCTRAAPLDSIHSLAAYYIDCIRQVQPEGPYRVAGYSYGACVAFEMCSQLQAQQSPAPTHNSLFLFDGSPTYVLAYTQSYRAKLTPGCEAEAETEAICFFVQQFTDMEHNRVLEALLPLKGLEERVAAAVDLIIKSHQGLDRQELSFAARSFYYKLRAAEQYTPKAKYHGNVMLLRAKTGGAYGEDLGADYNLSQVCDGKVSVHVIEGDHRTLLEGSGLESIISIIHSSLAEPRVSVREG
FAD-linked sulfhydryl oxidase ALR, sequence (P55789 whole entry): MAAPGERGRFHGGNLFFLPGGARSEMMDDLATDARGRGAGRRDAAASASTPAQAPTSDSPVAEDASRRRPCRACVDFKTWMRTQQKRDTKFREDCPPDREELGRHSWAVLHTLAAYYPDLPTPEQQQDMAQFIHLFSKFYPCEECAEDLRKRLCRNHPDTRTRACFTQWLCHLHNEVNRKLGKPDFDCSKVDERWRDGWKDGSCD
Cytochrome P450 2D6, sequence (P10635 whole entry): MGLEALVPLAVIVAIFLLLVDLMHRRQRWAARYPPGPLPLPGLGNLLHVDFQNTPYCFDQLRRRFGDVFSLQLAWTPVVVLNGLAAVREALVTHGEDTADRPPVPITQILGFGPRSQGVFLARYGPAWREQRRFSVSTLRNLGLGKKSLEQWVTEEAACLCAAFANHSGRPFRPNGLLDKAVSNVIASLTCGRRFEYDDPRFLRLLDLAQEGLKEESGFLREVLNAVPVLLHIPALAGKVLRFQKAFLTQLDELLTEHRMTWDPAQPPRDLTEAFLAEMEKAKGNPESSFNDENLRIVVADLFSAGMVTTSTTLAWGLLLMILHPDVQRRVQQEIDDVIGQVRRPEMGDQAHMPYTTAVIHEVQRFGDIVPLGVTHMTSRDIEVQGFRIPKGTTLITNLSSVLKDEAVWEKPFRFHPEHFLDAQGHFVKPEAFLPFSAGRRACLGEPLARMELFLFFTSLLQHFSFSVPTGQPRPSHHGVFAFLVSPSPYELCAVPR

## O=C(Nc1nccs1)c1ccc2ccccc2n1
Protein skinhead-1
  IC50: 21.3 µM (active)

## COc1ccc(C(=O)COC(=O)c2ccc(Cl)nc2)c(OC)c1
cells
  IC50: 13.2 µM (active)

## CCOC(=O)c1sc(NC(=S)NC(=O)c2ccco2)nc1C
[1]
  IC50: > 66 µM (inactive)
[2]
  IC50: > 66 µM (inactive)

## O=C1c2ccccc2C(=O)N1CCCCSc1nc2ccccc2c(=O)n1CCCN1CCOCC1
H9c2
  IC50: 10.1 µM (active)

## COc1cc2nc(SCc3c(C)noc3C)n(CCC3=CCCCC3)c(=O)c2cc1OC
[3]
  EC50: > 53 µM (inactive)
[4]
  IC50: > 47.1 µM (inactive)

## Cc1ccc(NC(S)=Nc2ccc(F)cc2)cc1
[1]
  IC50: > 66 µM (inactive)
[2]
  IC50: > 66 µM (inactive)

## CCOC(=O)c1cccc(NC(=O)CN2C(=O)C3C4C=CC(C4)C3C2=O)c1 (centres undefined)
Leucine aminopeptidase
  IC50: 14.2 µM (active)

## Cc1cc(N2CCCCC2)ccc1C=C1C(=O)N(C)C(=S)N(C)C1=O
Leucine aminopeptidase
  IC50: 40.9 µM (active)

## O=C(Nc1ccccc1C(=O)Nc1ccccc1C(=O)NCc1ccco1)c1ccco1
H9c2
  IC50: > 79 µM (inactive)

## Cc1cccnc1NC(=S)NC(=O)c1oc2ccccc2c1C
[1]
  IC50: > 66 µM (inactive)
[2]
  IC50: > 66 µM (inactive)

## O=C1C(C2=NC(C(=O)O)C3C(=O)N(c4ccccc4)C(=O)C23)=C(O)c2ccccc21 (centres undefined)
Leucine aminopeptidase
  IC50: 68 µM (active)

## CCOC(=O)c1c(C)oc2ccc(NS(=O)(=O)c3ccc(C(=O)O)cc3)cc12
Leucine aminopeptidase
  IC50: 43.9 µM (active)

## O=C(Nc1ccc2snnc2c1)N1CCSCC1
Protein skinhead-1
  IC50: > 100 µM (inactive)

## O=C(Nc1cccc(C(=O)O)c1)/C(=C\c1ccc2c(c1)OCO2)NC(=O)c1ccc(Br)o1
Leucine aminopeptidase
  IC50: 65 µM (active)

## COC(=O)C(CC(=O)Nc1cc(C)ccc1C)Nc1ccccc1OC (centres undefined)
[3]
  EC50: > 53 µM (inactive)
[5]
  AC50: 13.1 µM (active)
[4]
  IC50: > 47.1 µM (inactive)

## Cc1cccc(NC(=O)C(NS(=O)(=O)c2ccc3c(c2)CCC(=O)N3)c2ccccc2)n1 (centres undefined)
[1]
  IC50: > 66 µM (inactive)
[2]
  IC50: > 66 µM (inactive)

## N#CCCn1c(SCC(=O)c2c[nH]c3ccccc23)nc2ccccc21
H9c2
  IC50: > 79 µM (inactive)

## COc1cc(/C=C2/C(=N)N3C=CSC3=NC2=O)ccc1OCCCOc1ccccc1C
[6]
  EC50: 5.59 µM (active)
H4
  EC50: 70.8 µM (active)
Estrogen receptor
  IC50: > 50 µM (not active)
[7]
  EC50: 58.3 µM (active)

## Cc1cc(C(=O)NC(=S)Nc2cccc(NC(=O)C(C)C)c2)ccc1[N+](=O)[O-]
[1]
  IC50: > 66 µM (inactive)
[2]
  IC50: > 66 µM (inactive)

## Cc1nn(-c2ccccc2)c(NC(=O)c2cccs2)c(-c2ccccc2Cl)c1=O
[3]
  EC50: > 53 µM (inactive)
[4]
  IC50: > 47.1 µM (inactive)

## Cc1nn(-c2ccccc2)c2sc(C(=O)OCN3C(=O)c4ccccc4C3=O)cc12
Estrogen receptor
  IC50: 9.75 µM (active)

## CC1CCCN(C(=O)COC(=O)c2n[nH]c3ccccc23)C1 (centres undefined)
Estrogen receptor
  IC50: > 50 µM (not active)

## CCc1nnc(NC(=O)C(C)Sc2ccccc2)s1 (centres undefined)
Leucine aminopeptidase
  IC50: 3.57 µM (active)

## Cc1sc(NC(=O)c2ccco2)c(C(c2cccnc2)N2CCCC2)c1C (centres undefined)
Cytochrome P450 2D6
  AC50: 10 µM (inconclusive)
Protein skinhead-1
  IC50: > 100 µM (inactive)

## CC1CCN(C(=O)C2CCN(S(=O)(=O)c3cccs3)CC2)CC1
[3]
  EC50: > 53 µM (inactive)
[4]
  IC50: > 47.1 µM (inactive)

## Cc1cc(C)nc(NN=CC2=C(N3CCOCC3)/C(=C/c3ccc(Cl)cc3)CC2)n1
Vero
  CC50: > 25 µM (active)

## CCCCCCCCNS(=O)(=O)CCNCc1ccc(OC)cc1
[3]
  EC50: > 53 µM (inactive)
[4]
  IC50: > 47.1 µM (inactive)

## CN(C)C(=O)CN1C(=O)NC2(CCc3ccccc32)C1=O (centres undefined)
Protein skinhead-1
  IC50: > 100 µM (inactive)

## CCOc1ccc(N(CC(=O)N/N=C/c2ccccn2)S(=O)(=O)c2ccc(Cl)cc2)cc1
Fatty acid synthase [8]
  IC50: 5.79 µM (active)
Fatty acid synthase [9]
  IC50: 10.6 µM (active)
H9c2
  IC50: > 79 µM (inactive)

## CCCCCNC1=CC(=O)CC(c2ccccc2)C1 (centres undefined)
[3]
  EC50: > 53 µM (inactive)
[4]
  IC50: > 47.1 µM (inactive)

## COc1ccc(NC(=S)N/N=C/c2ccc(F)cc2)cc1OC
[1]
  IC50: > 66 µM (inactive)
[2]
  IC50: > 66 µM (inactive)

## C[C@@H]1CCCCO[C@H](CN(C)C(=O)Nc2ccc(C(F)(F)F)cc2)[C@@H](C)CN([C@H](C)CO)C(=O)c2cc(NC(=O)Cc3ccccc3)ccc2O1
[10]
  AC50: 1.78 µM (active)

## C[C@@H]1CN([C@@H](C)CO)C(=O)Cc2cc(NC(=O)Nc3ccc4c(c3)OCO4)ccc2O[C@@H]1CN(C)Cc1ccc(C(=O)Nc2ccccc2N)cc1
[10]
  AC50: 2.38 µM (active)

## CCOc1cc(/C=N/NC(=O)c2ccccn2)ccc1OC(=O)c1cccs1
cells
  IC50: 26.5 µM (active)

## N#Cc1c(-c2ccccc2)cc(-c2ccco2)c(C#N)c1N
Estrogen receptor
  IC50: 33.5 µM (not active)
